Source: patent US11304919B2, “Utilization of cilastatin in inhibiting renal disorder” (NIIGATA UNIVERSITY, priority 2018, dated 2022)

Experiments:
C57BL/6J mice = assay: Inhibition of contrast-induced renal injuries in murine contrast nephropathy model (Example 2); type: in vivo, mouse; conditions: 200 μL iomeprol + 400 mg/kg cilastatin
Procedure: In order to confirm the ability of cilastatin to inhibit renal injuries, C57BL/6J mice were simultaneously administered with an iodinated contrast medium and cilastatin, and the results were analyzed.
Left kidneys were extracted from the C57BL/6J mice, and 14 days later, right kidney pedicles were ligated for 30 minutes. Thereafter, reperfusion was carried out. […]
a) Contrast medium+cilastatin-treated group: 200 μL of iomeprol (CM)+400 mg/kg cilastatin (CS) (100 LL) b) Contrast medium+normal saline-treated group: 200 μL of iomeprol (CM)+100 μL of NS For each of the groups, after 48 hours from the medication, blood and urine samples were collected, and serum Cr, MN and cystatin C levels, and urinary Cr, NAG and KIM-1 levels were measured. Further, right kidneys were extracted and histologically evaluated by immunostaining with KIM-1 and staining with PAS. […] Serum cystatin C and urinary KIM-1 measurements were contracted to Oriental Yeast Co., Ltd.
0.5±: Clear but weak granular staining present focally along the luminal surface of non-atrophic proximal tubules 1+: Clear but weak granular staining completely surrounding the luminal surface of non-atrophic proximal tubules 2+: Moderately intense granular staining completely surrounding the luminal surface of non-atrophic proximal tubules and extending into intercellular junctions 3+: Strong large granular staining completely surrounding the luminal surface of non-atrophic proximal tubules and extending into intercellular junctions […]
Individuals meeting these criteria were regarded as individuals with onset of contrast nephropathy.

[1] = test system: protein (carrier) used in Reference Example 5; conditions: 0-50 mM cilastatin; 10 mM iomeprol, ioversol, iodixanol, iopromide or iohexol solid-phased beads; FIGS. 22-26
Procedure: Different solutions, as mentioned below, were prepared using 100 mM KCL buffer (as mentioned in Reference Example 4) and the protein used in Reference Example 5, and were reacted at 4° C. for 2 hours.
a) Solution containing 25 ng/μL of the protein of interest and 0 mM of the contrast medium
b) Solution containing 25 ng/μL of the protein of interest and 10 mM of the contrast medium
c) Solution containing 25 ng/μL of the protein of interest and 25 mM of the contrast medium
d) Solution containing 25 ng/μL of the protein of interest and 50 mM of the contrast medium
Next, the above-prepared solutions were each added to 5 mg of the 0 mM or 10 mM contrast solid-phased beads dispersed and washed by the procedure described in Reference Example 4, and were reacted at 4° C. for 4 hours. The solution/beads combinations adopted were as mentioned below.
Then, the different mixtures were treated by following the procedure described in Reference Example 4, and heat-eluted samples were prepared from the different reaction solutions.
Different solutions, as mentioned below, were prepared using 100 mM KCL buffer (as mentioned in Reference Example 4), and were reacted at 4° C. for 2 hours.
a′) Solution containing 25 ng/μL of the protein of interest and 0 mM of cilastatin
b′) Solution containing 25 ng/μL of the protein of interest and 10 mM of cilastatin […]

megalin [2] = target: megalin (Rattus norvegicus, UniProt P98158); conditions: 1 mg cilastatin injected in advance; 1.5 μg protein of interest; FIG. 27
Procedure: According to the method of Orlando, et al, megalin protein purified from Sprague-Dawley (SD) rat kidneys was immobilized on quartz crystals. To be specific, with the use of an immobilization kit for AFFNIX® (Initium Inc.) and according to the recommended protocol for the kit, a megalin protein solution was prepared in Buffer A as provided with the kit to a concentration of 62.5 μg/mL, and placed and immobilized onto quartz crystals mounted in a holder.
More specifically, the protein of interest was injected in aliquots of the megalin protein-immobilized quartz crystals in 200 μL of buffer to measure frequency. The same measurement was done on quartz crystals, as a control, on which the same amount of bovine serum albumin (BAS) was solid phased instead of megalin. Thus, the specific binding ability of the protein of interest to megalin was analyzed.
Further, aliquots of megalin protein-immobilized quartz crystals in a buffer in which 1 mg of cilastatin was injected in advance were mounted in the measurement instrument, and the frequency was confirmed to be stable, and then, 1.5 μg of the protein of interest was injected to measure frequency over time, whereby the antagonizing activity of cilastatin against the binding of the protein of interest to megalin was analyzed. The same experiment was performed for the control group.

megalin [3] = target: T1, megalin (Mus musculus, UniProt A2ARV4)
T1 sequence (A2ARV4 26-4660): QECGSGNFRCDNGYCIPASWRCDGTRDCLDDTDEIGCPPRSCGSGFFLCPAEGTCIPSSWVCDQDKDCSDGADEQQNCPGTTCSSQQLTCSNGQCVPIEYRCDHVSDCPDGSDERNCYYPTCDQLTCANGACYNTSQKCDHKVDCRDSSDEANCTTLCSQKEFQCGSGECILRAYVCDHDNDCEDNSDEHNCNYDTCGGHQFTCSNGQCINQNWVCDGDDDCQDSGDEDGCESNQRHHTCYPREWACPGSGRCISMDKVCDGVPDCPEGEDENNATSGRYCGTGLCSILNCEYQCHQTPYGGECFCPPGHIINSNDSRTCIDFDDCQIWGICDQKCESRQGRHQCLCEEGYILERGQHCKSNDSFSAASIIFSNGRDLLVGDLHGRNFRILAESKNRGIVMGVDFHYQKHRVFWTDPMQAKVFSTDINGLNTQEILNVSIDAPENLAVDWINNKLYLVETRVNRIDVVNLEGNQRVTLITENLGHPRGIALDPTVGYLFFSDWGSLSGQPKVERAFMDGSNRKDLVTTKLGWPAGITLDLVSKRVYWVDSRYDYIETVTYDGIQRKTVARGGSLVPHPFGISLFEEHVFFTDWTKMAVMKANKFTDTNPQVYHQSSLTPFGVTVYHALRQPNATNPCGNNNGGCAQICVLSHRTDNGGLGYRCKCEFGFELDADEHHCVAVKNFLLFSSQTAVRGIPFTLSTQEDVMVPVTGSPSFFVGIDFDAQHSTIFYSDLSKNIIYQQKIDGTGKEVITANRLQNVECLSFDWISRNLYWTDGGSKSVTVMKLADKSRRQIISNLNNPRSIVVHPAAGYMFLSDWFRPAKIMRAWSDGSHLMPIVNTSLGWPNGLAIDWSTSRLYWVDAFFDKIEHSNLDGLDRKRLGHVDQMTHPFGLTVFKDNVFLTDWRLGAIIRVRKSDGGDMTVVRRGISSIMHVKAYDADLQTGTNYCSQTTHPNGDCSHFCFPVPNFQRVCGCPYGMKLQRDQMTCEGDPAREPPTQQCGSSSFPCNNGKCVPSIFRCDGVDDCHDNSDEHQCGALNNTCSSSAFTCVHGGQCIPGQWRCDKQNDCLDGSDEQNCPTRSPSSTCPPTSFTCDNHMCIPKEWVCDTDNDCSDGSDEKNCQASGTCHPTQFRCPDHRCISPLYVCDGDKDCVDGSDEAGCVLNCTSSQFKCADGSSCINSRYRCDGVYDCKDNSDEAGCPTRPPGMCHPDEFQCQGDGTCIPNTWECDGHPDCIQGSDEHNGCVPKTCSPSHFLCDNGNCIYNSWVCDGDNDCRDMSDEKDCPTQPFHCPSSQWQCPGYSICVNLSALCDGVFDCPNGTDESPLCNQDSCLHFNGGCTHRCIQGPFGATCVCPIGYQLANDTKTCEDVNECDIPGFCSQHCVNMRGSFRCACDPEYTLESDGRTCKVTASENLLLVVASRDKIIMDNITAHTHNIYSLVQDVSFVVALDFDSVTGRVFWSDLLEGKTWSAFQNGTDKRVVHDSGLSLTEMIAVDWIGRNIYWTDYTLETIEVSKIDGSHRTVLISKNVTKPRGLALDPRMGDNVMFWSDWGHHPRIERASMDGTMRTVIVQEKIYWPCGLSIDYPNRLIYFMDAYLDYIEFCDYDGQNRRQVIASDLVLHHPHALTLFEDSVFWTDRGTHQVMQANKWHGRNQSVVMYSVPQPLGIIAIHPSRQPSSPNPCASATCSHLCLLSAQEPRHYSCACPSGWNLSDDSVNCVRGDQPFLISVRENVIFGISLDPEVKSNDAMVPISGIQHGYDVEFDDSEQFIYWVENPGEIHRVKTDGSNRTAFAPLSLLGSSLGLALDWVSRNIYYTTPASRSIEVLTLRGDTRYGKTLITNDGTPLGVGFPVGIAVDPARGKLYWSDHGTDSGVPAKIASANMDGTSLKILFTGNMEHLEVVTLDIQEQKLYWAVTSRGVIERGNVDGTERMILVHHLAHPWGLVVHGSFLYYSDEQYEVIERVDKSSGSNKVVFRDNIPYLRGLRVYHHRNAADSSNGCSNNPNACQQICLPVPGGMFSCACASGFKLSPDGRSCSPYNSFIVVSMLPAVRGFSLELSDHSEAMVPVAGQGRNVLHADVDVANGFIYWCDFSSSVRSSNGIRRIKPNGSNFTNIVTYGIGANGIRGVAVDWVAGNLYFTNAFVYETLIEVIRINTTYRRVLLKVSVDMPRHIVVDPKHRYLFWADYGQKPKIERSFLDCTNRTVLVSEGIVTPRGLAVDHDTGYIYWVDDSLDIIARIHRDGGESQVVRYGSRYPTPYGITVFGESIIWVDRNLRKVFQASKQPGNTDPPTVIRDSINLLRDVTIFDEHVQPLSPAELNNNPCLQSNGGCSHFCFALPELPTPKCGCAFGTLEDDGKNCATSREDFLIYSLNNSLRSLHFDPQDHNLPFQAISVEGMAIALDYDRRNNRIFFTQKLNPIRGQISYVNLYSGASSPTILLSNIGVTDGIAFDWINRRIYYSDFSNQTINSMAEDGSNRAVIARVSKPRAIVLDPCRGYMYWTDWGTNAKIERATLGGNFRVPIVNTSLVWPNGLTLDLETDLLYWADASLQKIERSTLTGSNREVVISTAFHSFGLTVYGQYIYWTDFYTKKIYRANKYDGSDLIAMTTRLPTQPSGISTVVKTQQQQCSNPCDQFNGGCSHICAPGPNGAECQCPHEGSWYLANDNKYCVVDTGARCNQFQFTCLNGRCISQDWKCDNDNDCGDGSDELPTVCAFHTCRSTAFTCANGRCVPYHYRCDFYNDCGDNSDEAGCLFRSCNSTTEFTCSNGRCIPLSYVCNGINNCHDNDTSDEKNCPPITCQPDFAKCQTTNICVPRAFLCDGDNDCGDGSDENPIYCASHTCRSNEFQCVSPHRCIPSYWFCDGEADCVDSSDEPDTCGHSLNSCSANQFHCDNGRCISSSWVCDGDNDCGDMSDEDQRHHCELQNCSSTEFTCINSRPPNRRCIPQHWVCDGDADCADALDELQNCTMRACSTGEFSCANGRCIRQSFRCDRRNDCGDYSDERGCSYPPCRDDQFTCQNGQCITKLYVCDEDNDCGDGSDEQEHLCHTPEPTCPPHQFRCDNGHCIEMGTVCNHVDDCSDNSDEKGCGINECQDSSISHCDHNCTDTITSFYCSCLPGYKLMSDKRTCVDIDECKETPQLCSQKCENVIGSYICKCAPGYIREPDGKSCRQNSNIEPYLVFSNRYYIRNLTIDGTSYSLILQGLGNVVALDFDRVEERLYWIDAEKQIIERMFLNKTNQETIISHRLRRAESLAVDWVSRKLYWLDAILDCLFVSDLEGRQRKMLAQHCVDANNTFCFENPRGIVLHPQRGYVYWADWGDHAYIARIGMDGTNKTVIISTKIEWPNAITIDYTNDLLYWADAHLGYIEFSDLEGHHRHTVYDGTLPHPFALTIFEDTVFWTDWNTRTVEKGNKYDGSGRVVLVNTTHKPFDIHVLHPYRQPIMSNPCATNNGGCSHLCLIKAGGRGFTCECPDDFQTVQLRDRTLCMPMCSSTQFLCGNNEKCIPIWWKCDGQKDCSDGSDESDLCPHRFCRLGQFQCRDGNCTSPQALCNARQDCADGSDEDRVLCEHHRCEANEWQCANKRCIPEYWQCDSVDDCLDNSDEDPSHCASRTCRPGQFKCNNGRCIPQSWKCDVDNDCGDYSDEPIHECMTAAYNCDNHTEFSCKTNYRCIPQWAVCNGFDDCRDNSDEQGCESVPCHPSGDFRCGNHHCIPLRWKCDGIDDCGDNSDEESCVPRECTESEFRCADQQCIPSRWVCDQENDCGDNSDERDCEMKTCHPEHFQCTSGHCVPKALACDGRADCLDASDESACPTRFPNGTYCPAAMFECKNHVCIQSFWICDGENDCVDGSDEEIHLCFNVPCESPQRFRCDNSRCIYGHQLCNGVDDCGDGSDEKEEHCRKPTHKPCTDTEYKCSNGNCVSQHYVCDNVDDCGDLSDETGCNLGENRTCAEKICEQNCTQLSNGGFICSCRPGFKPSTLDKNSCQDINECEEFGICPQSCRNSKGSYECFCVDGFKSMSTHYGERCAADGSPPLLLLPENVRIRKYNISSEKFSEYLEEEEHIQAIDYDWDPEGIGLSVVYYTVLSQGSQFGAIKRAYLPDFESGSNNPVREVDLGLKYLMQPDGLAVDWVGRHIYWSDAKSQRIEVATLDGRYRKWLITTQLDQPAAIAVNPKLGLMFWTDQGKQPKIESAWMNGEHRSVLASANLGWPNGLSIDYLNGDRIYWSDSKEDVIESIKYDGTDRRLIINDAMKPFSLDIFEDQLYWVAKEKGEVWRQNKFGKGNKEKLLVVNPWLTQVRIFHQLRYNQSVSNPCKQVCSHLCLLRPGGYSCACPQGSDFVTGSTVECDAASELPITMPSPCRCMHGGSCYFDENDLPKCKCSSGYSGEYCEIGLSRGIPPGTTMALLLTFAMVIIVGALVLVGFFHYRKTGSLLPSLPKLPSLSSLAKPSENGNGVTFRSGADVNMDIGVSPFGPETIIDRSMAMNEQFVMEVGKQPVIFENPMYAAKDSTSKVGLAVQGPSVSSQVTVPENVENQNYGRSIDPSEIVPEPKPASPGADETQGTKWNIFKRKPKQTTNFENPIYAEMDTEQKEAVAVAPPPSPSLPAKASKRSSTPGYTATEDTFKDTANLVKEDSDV
Description: In this example, it was verified, using an electron probe microanalyzer (EPMA), whether megalin-dependent internalization of contrast media (iodine) into murine renal proximal tubular epithelial cells was inhibited by treatment with cilastatin.
C57BL/6J mice were divided into the following groups and administered with the following agents from the tail vein.
Therefore, by calculating a ratio of X-ray intensity between iodine (I) and nitrogen (N) (I/N) in a specified area of thin-film biological samples, iodine (I) levels in different samples can be relatively quantified and compared. X-ray count ratio=(X-ray count of iodine/unit area)/(X-ray count of nitrogen/(unit area))
Based on this principle, iodine levels in a specified area were relatively quantified and compared.
Further, 1980 μm^2 regions containing cortex portions were analyzed, and seven 500 μm^2 areas were chosen from the cortex portions so as not to overlap with each other. An average was calculated of the I/N X-ray ratios in the seven areas, and regarded as an I/N X-ray ratio for one individual. Those I/N X-ray ratios for six individuals in each of the a) and b) groups were quantified and compared.

megalin [4] = target: T1, megalin; conditions: in vivo
Description: (§1) EPMA is an electron microprobe (EMP) instrument that analyzes the constituent elements of a substance of interest by irradiating electron beams onto the substance and measuring the wavelengths and intensities of characteristic X-rays unique to the different elements, which are generated by the electron beams. […] The behaviors of contrast media per se can be verified by analyzing iodine content distribution.
(§2) In order to use right kidneys for analysis, 3 mm-thick sections containing a kidney pedicle portion were prepared, embedded in OCT compound, freeze-fixed with liquid nitrogen, and stored at −80° C.
(§3) Next, the stored sections were sliced at a thickness of 4 μm using a cryostat (CM1850, Leica Biosystems), and the obtained slices were attached onto carbon-coated grids and freeze-dried overnight.
(§4) 378 μm^2 cortical areas in the prepared tissue slices were analyzed by EPMA (EPMA 1610, Shimadzu Corporation, Kyoto, Japan) to map iodine present in the structures of the contrast media.

megalin [5] = conditions: mouse, in vivo
Description: as §1, §2, §3, §4

Structure (SMILES)	iodine contents detected in kidney slices by EPMA, NDRG1-Cre mice versus control mice (megalin [5])	iodine detected in kidney slices by EPMA, control mice (megalin [4])	further results
CC1(C)C[C@@H]1C(=O)N/C(=C\CCCCSC[C@H](N)C(=O)O)C(=O)O [cilastatin, (Z)-7-[[(R)-2-amino-2-carboxyethyl]thio]-2-[[[(S)-2,2-dimethylcyclopropyl]carbonyl]amino]-2-heptenoic acid]	–	–	increase in urinary KIM-1 levels versus contrast medium+normal saline group (C57BL/6J mice; 48 h, FIG. 16): significantly (t-test) reduced; percentage of individuals with onset of contrast nephropathy (C57BL/6J mice; 48 h after medication): 0%; expression of KIM-1 in kidney tissue (staining intensity scores) versus contrast medium+normal saline group (C57BL/6J mice; outer cortices (S1 and S2 segments), FIG. 18): significantly (t-test) lower; band corresponding to the protein of interest bound to contrast-bound beads, in the coexistence of cilastatin [1]: decreased; change in frequency after injection of the protein of interest onto megalin-immobilized quartz crystals (QCM) (megalin [2]): reduced; detection of iodine by EPMA in kidney tissue versus contrast medium+normal saline groups (megalin [3]; 400 mg/kg cilastatin + 100 μL contrast medium, tail vein, FIG. 11 (iomeprol)): decrease in the detection of iodine; I/N X-ray ratio in kidney cortex versus contrast medium+normal saline groups (megalin [3]; 400 mg/kg cilastatin + 100 μL iomeprol, iohexol, ioversol or iodixanol, six individuals per group, FIGS. 12 to 15): significantly (t-test) lower
CC(=O)N(CC(O)CN(C(C)=O)c1c(I)c(C(=O)NCC(O)CO)c(I)c(C(=O)NCC(O)CO)c1I)c1c(I)c(C(=O)NCC(O)CO)c(I)c(C(=O)NCC(O)CO)c1I (stereo not shown) [iodixanol]	lower	High concentrations of iodine were detected	–
CC(=O)N(CC(O)CO)c1c(I)c(C(=O)NCC(O)CO)c(I)c(C(=O)NCC(O)CO)c1I (stereo not shown) [iohexol]	lower	High concentrations of iodine were detected	–

Second part, led by results:

iodine contents detected in kidney slices by EPMA, NDRG1-Cre mice versus control mice (megalin [5])	Structure (SMILES)	iodine detected in kidney slices by EPMA, control mice (megalin [4])	further results
lower	C[C@H](O)C(=O)Nc1c(I)c(C(=O)NC(CO)CO)c(I)c(C(=O)NC(CO)CO)c1I [iopamidol]	High concentrations of iodine were detected	–
lower	COCC(=O)Nc1c(I)c(C(=O)NCC(O)CO)c(I)c(C(=O)N(C)CC(O)CO)c1I (stereo not shown) [iopromide]	High concentrations of iodine were detected	–
lower	O=C(NCC(O)CO)c1c(I)c(C(=O)NCC(O)CO)c(I)c(N(CCO)C(=O)CO)c1I (stereo not shown) [ioversol]	–	–
